Here are results for 31 molecules from PubChem BioAssay AID624026 (Broad Institute, 2012).

“And” between values parts separate entries of the source, which are not always exact repeats. Identical values can stand only once. The source made the active and inactive calls.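 Rule for the calls: active = compounds reducing cell viability with a fitted AC50 at or below twice their top valid dose; inconclusive = flat curve between -70% and -30%, or an unreliable fit; inactive = the rest.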

For the first test, the system named is ldlA[mSR-BI] CHO cells viability, CellTiter-Glo ATP, 24 h. Nature of the test: cytotoxicity in ldlA[mSR-BI] CHO cells, dose response, cytotoxicity control for SR-BI HDL uptake inhibitor project, cell-based, CellTiter-Glo, 24 h, powder samples, set 7 (AID 624026).
Details: not given
On the technique in general: In ATP-based viability assays light output follows the ATP content of the culture.
`C=CCOC(=O)N(C)C[C@@H]1Oc2ccc(NC(=O)OCC3c4ccccc4-c4ccccc43)cc2C(=O)N([C@H](C)CO)C[C@H]1C`: the AC50 (as a rule, the midpoint of the concentration-response curve, whichever way the signal moves) is > 70 µM (inactive).

`CC(C)NC(=O)Nc1ccc2c(c1)C(=O)N([C@H](C)CO)C[C@@H](C)[C@H](CN(C)S(=O)(=O)c1ccc(Cl)cc1)O2`: the AC50 is > 70 µM (inactive). Still for that read-out and setting: next, `C=CCOC(=O)N(C)C[C@@H]1Oc2ccc(NC(=O)NC(C)C)cc2C(=O)N([C@H](C)CO[Si](C)(C)C(C)(C)C)C[C@H]1C`: 21.6 µM; `C=CCOC(=O)N(C)C[C@@H]1Oc2ccc(N)cc2C(=O)N([C@H](C)CO[Si](C)(C)C(C)(C)C)C[C@H]1C`: > 70 µM (inactive).

Tested on in the next test: not listed separately
Described as above. Particulars: ldlA[mSR-BI] CHO cells viability, CellTiter-Glo ATP, 24 h; at 35 µM (top of the series).
As for `CC(C)NC(=O)Nc1ccc2c(c1)C(=O)N([C@H](C)CO)C[C@@H](C)[C@@H](CN(C)S(=O)(=O)c1ccc(Cl)cc1)O2`, the activity change, negative = cytotoxicity was 4.21% (inactive).

Take `COCC(=O)N1CCc2cc(-c3csc(NC(=O)c4cc(OC)cc(OC)c4)n3)ccc21`: the activity change, negative = cytotoxicity was 3.29% (inactive). Consider `CC(C)NC(=O)Nc1ccc2c(c1)C(=O)N([C@H](C)CO)C[C@H](C)[C@H](CN(C)S(=O)(=O)c1ccc(Cl)cc1)O2`, for which the activity change, negative = cytotoxicity is 1.21% (inactive). For `C[C@@H]1CN([C@H](C)CO)C(=O)c2cc(NC(=O)Cc3cn(C)c4ccccc34)ccc2O[C@H]1CN(C)S(=O)(=O)c1ccc(F)cc1`, the activity change, negative = cytotoxicity was 12.8% (inactive). As for `CC(C)NC(=O)Nc1ccc2c(c1)C(=O)N([C@@H](C)CO)C[C@@H](C)[C@@H](CN(C)S(=O)(=O)c1ccc(Cl)cc1)O2`, the activity change, negative = cytotoxicity is 12.2% (inactive). Take `C[C@@H]1CN([C@H](C)CO)C(=O)c2cc(NC(=O)C3CCCCC3)ccc2O[C@H]1CN(C)C(=O)c1ccc(Cl)cc1`: the activity change, negative = cytotoxicity is -8.49% (inactive).

As for `CC(C)NC(=O)Nc1ccc2c(c1)C(=O)N([C@H](C)CO)C[C@@H](C)[C@H](CN(C)S(=O)(=O)c1ccc(Cl)cc1)O2`, the activity change, negative = cytotoxicity is 10.4% (inactive) and 2.32% (inactive). For `C[C@H](C(=O)NC1CCCC1)N(C(=O)Cn1nnc(-c2ccc3c(c2)OCO3)n1)C1CCCCC1`, the activity change, negative = cytotoxicity was -3.33% (inactive). Regarding `CC(C)NC(=O)Nc1ccc2c(c1)C(=O)N([C@@H](C)CO)C[C@H](C)[C@H](CN(C)S(=O)(=O)c1ccc(Cl)cc1)O2`, the activity change, negative = cytotoxicity was 6.98% (inactive). As to `CC(C)NC(=O)Nc1ccc2c(c1)C(=O)N([C@@H](C)CO)C[C@@H](C)[C@H](CN(C)S(=O)(=O)c1ccc(Cl)cc1)O2`, the activity change, negative = cytotoxicity is 0.1% (inactive). Regarding `CC(C)NC(=O)Nc1ccc2c(c1)C(=O)N([C@H](C)CO[Si](C)(C)C(C)(C)C)C[C@@H](C)[C@H](CN(C)S(=O)(=O)c1ccc(Cl)cc1)O2`, the activity change, negative = cytotoxicity was 2% (inactive). For the molecule `C[C@@H]1CN([C@H](C)CO[Si](C)(C)C(C)(C)C)C(=O)c2cc(NC(=O)C3CCCCC3)ccc2O[C@H]1CN(C)C(=O)c1ccc(Cl)cc1`, the activity change, negative = cytotoxicity is 1.39% (inactive). The same measure, in the same setting: next, `C[C@@H]1CN([C@H](C)CO)C(=O)c2cc(NC(=O)C3CCCCC3)ccc2O[C@H]1CN(C)S(=O)(=O)c1ccccc1Cl`: 2.46% (inactive); `C[C@@H]1CN([C@H](C)CO)C(=O)c2cc(NC(=O)Cc3cn(C)c4ccccc34)ccc2O[C@H]1CN(C)S(=O)(=O)c1ccc(Cl)cc1`: -1.59% (inactive).

As for `CC(C)CN(C(=O)COC(=O)C12CC3CC(CC(O)(C3)C1)C2)C1CCS(=O)(=O)C1` (configuration not stated), the activity change, negative = cytotoxicity is -5.18% (inactive). On the same count and under the same terms, the value for `Cc1ccc(OCc2cc(C(=O)N3CCCC(O)C3)no2)cn1` (configuration not stated) was -3.58% (inactive). Still for that read-out and setting: the value for `O=C1C2C3C=CC(C3)C2C(=O)N1c1cccc(N2C(=O)C3C4C=CC(C4)C3C2=O)n1` (configuration not stated) was -1.42% (inactive); that for `O=C(O)CC(C(=O)Nc1cccc(C(F)(F)F)c1)C1CCCO1` (configuration not stated) was 1.15% (inactive); that for `COc1ccc2c(c1)CC(C1(O)C(=O)N(C)c3ccccc31)C2=O` (configuration not stated) was -4.38% (inactive). With `CC(C)NC(=O)Nc1ccc2c(c1)CC(=O)N([C@H](C)CO)C[C@@H](C)[C@H](CN(C)S(=O)(=O)c1ccc(Cl)cc1)O2`, the activity change, negative = cytotoxicity was 8.33% (inactive). Same read-out and setting: the value for `Cc1noc(C)c1S(=O)(=O)Nc1ccc2c(c1)C(=O)N([C@H](C)CO)C[C@@H](C)[C@H](CN(C)S(=O)(=O)c1ccc(Cl)cc1)O2` was 2.07% (inactive); that for `CC(C)NC(=O)Nc1cccc2c1O[C@@H](CN(C)S(=O)(=O)c1ccc(Cl)cc1)[C@H](C)CN([C@H](C)CO)C2=O` was 3.81% (inactive); that for `C[C@@H]1CN([C@H](C)CO)C(=O)c2cc(NC(=O)C3CCCCC3)ccc2O[C@H]1CN(C)S(=O)(=O)c1cccc(Cl)c1` was -12.5% (inactive). On the same count and under the same terms, next, `CNC[C@@H]1Oc2ccc(NC(=O)NC(C)C)cc2C(=O)N([C@H](C)CO[Si](C)(C)C(C)(C)C)C[C@H]1C`: 0.137% (inactive); `C[C@@H]1CN([C@H](C)CO)C(=O)c2cc(NC(=O)C3CCOCC3)ccc2O[C@H]1CN(C)S(=O)(=O)c1ccc(Cl)cc1`: -3.51% (inactive); `C[C@@H]1CN([C@H](C)CO)C(=O)c2cc(NC(=O)C3CCCCC3)ccc2O[C@H]1CN(C)S(=O)(=O)c1ccc(Cl)cc1`: 0.365% (inactive). On the same count and under the same terms, the value for `CCOc1cc2c3c(c1)C1(C(=O)N3C(C)(C)CC2C)C(C#N)=C(N)N2C(=C1C#N)Nc1ccccc12` (configuration not stated) was -18.2% (inactive). As to `COc1c(NC(=O)C(=O)c2ccc(OCCN3CCOCC3)c3ccccc23)cc(C(C)(C)C)cc1NS(C)(=O)=O`, the activity change, negative = cytotoxicity is -29.9% (inactive).
